From PubChem BioAssay (NCI)
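Step 1: Grow cells in 96-well plates. Step 2: Expose to compound for 48 hours at 5 concentrations. Step 3: Interpolate endpoints linearly; if unreached, use highest concentration. At the GI50, growth is halved. Definition used: TGI = concentration required for complete inhibition of growth.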

Experiments:
Test in all cases: NCI tumour cell line growth inhibition, 48 h; in the data active means GI50 below about 0.43 µM; inactive means the rest
OVCAR-5 ovarian = system: OVCAR-5 ovarian
SK-MEL-5 melanoma = system: SK-MEL-5 melanoma
U251 CNS = system: U251 CNS
NCI-H226 lung = system: NCI-H226 lung
HT29 colon = system: HT29 colon
LOX IMVI melanoma = system: LOX IMVI melanoma
HCC-2998 colon = system: HCC-2998 colon
IGROV1 ovarian = system: IGROV1 ovarian
786-0 renal = system: 786-0 renal
SN12C renal = system: SN12C renal
NCI-H460 lung = system: NCI-H460 lung
SK-OV-3 ovarian = system: SK-OV-3 ovarian
EKVX NSCLC = system: EKVX NSCLC
OVCAR-8 ovarian = system: OVCAR-8 ovarian
HCT-116 colon = system: HCT-116 colon
MALME-3M melanoma = system: MALME-3M melanoma
SF-539 CNS = system: SF-539 CNS
SR leukemia = system: SR leukemia
K-562 leukemia = system: K-562 leukemia
UO-31 renal = system: UO-31 renal
DU-145 prostate = system: DU-145 prostate
HCT-15 colon = system: HCT-15 colon
ACHN renal = system: ACHN renal
RXF 393 renal = system: RXF 393 renal
OVCAR-3 ovarian = system: OVCAR-3 ovarian
UACC-62 melanoma = system: UACC-62 melanoma
T-47D breast = system: T-47D breast
CAKI-1 renal = system: CAKI-1 renal
SK-MEL-28 melanoma = system: SK-MEL-28 melanoma
SNB-19 CNS = system: SNB-19 CNS
SF-268 CNS = system: SF-268 CNS
COLO 205 colon = system: COLO 205 colon
MOLT-4 leukemia = system: MOLT-4 leukemia
KM12 colon = system: KM12 colon
SK-MEL-2 melanoma = system: SK-MEL-2 melanoma
SNB-75 CNS = system: SNB-75 CNS
NCI/ADR-RES ovarian = system: NCI/ADR-RES ovarian
MCF7 breast = system: MCF7 breast
NCI-H23 lung = system: NCI-H23 lung
MDA-MB-435 = system: MDA-MB-435
A549 NSCLC = system: A549 NSCLC
HS 578T breast = system: HS 578T breast
SW-620 colon = system: SW-620 colon
NCI-H522 lung = system: NCI-H522 lung
OVCAR-4 ovarian = system: OVCAR-4 ovarian
HL-60(TB) leukemia = system: HL-60(TB) leukemia
SF-295 CNS = system: SF-295 CNS
BT-549 breast = system: BT-549 breast
M14 melanoma = system: M14 melanoma
TK-10 renal = system: TK-10 renal
MDA-MB-231 breast = system: MDA-MB-231 breast

Nc1ccn([C@@H]2C(F)=C(CO)[C@@H](O)[C@H]2O)c(=O)n1
> 100 µM: TGI (OVCAR-5 ovarian) | TGI (SK-MEL-5 melanoma) | TGI (U251 CNS) | TGI (NCI-H226 lung) | TGI (HT29 colon) | TGI (LOX IMVI melanoma) | TGI (HCC-2998 colon) | TGI (IGROV1 ovarian) | TGI (786-0 renal) | TGI (SN12C renal) | TGI (NCI-H460 lung) | TGI (SK-OV-3 ovarian) | TGI (EKVX NSCLC) | TGI (OVCAR-8 ovarian) | TGI (HCT-116 colon) | TGI (MALME-3M melanoma) | TGI (SF-539 CNS) | TGI (SR leukemia) | TGI (K-562 leukemia) | TGI (UO-31 renal) | TGI (DU-145 prostate) | TGI (HCT-15 colon) | TGI (ACHN renal) | TGI (RXF 393 renal) | TGI (OVCAR-3 ovarian) | TGI (UACC-62 melanoma) | TGI (T-47D breast) | TGI (CAKI-1 renal) | TGI (SK-MEL-28 melanoma) | TGI (SNB-19 CNS) | TGI (SF-268 CNS) | TGI (COLO 205 colon) | TGI (MOLT-4 leukemia) | TGI (KM12 colon) | TGI (SK-MEL-2 melanoma) | TGI (SNB-75 CNS) | TGI (NCI/ADR-RES ovarian) | TGI (MCF7 breast) | TGI (NCI-H23 lung) | TGI (MDA-MB-435) | TGI (A549 NSCLC) | TGI (HS 578T breast) | TGI (SW-620 colon) | TGI (NCI-H522 lung) | TGI (OVCAR-4 ovarian) | TGI (HL-60(TB) leukemia) | TGI (SF-295 CNS) | TGI (BT-549 breast) | TGI (M14 melanoma) | TGI (TK-10 renal) | TGI (MDA-MB-231 breast)
active: GI50 (NCI-H460 lung) 0.384 µM | GI50 (HCT-116 colon) 0.395 µM | GI50 (MCF7 breast) 0.362 µM | GI50 (A549 NSCLC) 0.42 µM
inactive: GI50 (OVCAR-5 ovarian) 12.2 µM | GI50 (SK-MEL-5 melanoma) 4.37 µM | GI50 (U251 CNS) 2.78 µM | GI50 (NCI-H226 lung) 11.5 µM | GI50 (HT29 colon) 0.625 µM | GI50 (LOX IMVI melanoma) 0.453 µM | GI50 (HCC-2998 colon) 0.962 µM | GI50 (IGROV1 ovarian) 2.88 µM | GI50 (786-0 renal) 0.726 µM | GI50 (SN12C renal) 0.448 µM | GI50 (SK-OV-3 ovarian) 4.95 µM | GI50 (EKVX NSCLC) 26.8 µM | GI50 (OVCAR-8 ovarian) 0.551 µM | GI50 (MALME-3M melanoma) 9.57 µM | GI50 (SF-539 CNS) 1.94 µM | GI50 (SR leukemia) 0.443 µM | GI50 (K-562 leukemia) 0.781 µM | GI50 (UO-31 renal) 0.462 µM | GI50 (DU-145 prostate) 0.445 µM | GI50 (HCT-15 colon) 0.545 µM | GI50 (ACHN renal) 0.755 µM | GI50 (RXF 393 renal) 8.04 µM | GI50 (OVCAR-3 ovarian) 4.17 µM | GI50 (UACC-62 melanoma) 3.78 µM | GI50 (T-47D breast) 5.02 µM | GI50 (CAKI-1 renal) 7.1 µM | GI50 (SK-MEL-28 melanoma) 6.91 µM | GI50 (SNB-19 CNS) 2.81 µM | GI50 (SF-268 CNS) 1.53 µM | GI50 (COLO 205 colon) 0.838 µM | GI50 (MOLT-4 leukemia) 1.85 µM | GI50 (KM12 colon) 0.65 µM | GI50 (SK-MEL-2 melanoma) > 100 µM | GI50 (SNB-75 CNS) 9.94 µM | GI50 (NCI/ADR-RES ovarian) 0.578 µM | GI50 (NCI-H23 lung) 3.84 µM | GI50 (MDA-MB-435) 0.846 µM | GI50 (HS 578T breast) 12.3 µM | GI50 (SW-620 colon) 0.546 µM | GI50 (NCI-H522 lung) 0.45 µM | GI50 (OVCAR-4 ovarian) 23.2 µM | GI50 (HL-60(TB) leukemia) 0.889 µM | GI50 (SF-295 CNS) 4.2 µM | GI50 (BT-549 breast) 23.5 µM | GI50 (M14 melanoma) 0.859 µM | GI50 (TK-10 renal) 6.73 µM | GI50 (MDA-MB-231 breast) 2.73 µM
